{"source": "patent EP0752872B1", "about": "“NADH OXIDASE AS A TARGET IN DIAGNOSIS AND THERAPY” (Morré, D. James, priority 1994, dated 1995)", "key": {"[1]": {"tested_on": "plasma membrane NADH oxidase", "test": "Spectrophotometric NADH oxidase assay, rat liver plasma membranes (normal cells)", "format": "biochemical", "experimental": "Purification of plasma membranes from rat liver. A 5000 x g pellet from the preparation of Golgi apparatus (Morré (1971) Meth. Enzymol. 22, 130-148) was the starting material. The fluffy layer which contains the Golgi apparatus fraction was mixed, withdrawn and excluded from the plasma membrane preparations. Cold 1 mM NaHCO3 (5 ml) was added to each tube and the friable yellow-brown upper part of the pellet was resuspended with a pen-brush, leaving the reddish tightly packed bottom part of the pellet undisturbed. The resuspended material was homogenized in aliquots of 5 ml each in a 30 ml stainless steel homogenizer (Duragrind) 20 times by hand. The homogenates were combined, diluted with cold 1 mM NaHCO3 (1:1 dilution), and centrifuged at 6000 x g in a HB rotor for 15 min. The supernatant was discarded and the pellet was used for the two-phase separation (Morré & Morré (1989) BioTechniques 7:946-958).\nThe two-phase system contained 6.4% (w/w) Dextran T-500 (Pharmacia), 6.4% (w/w) polyethylene glycol) 3350 (Fisher), and 5 mM potassium phosphate buffer (pH 7.2) (Morré & Morré, 1989, supra). The homogenate (1 g) was added to the two-phase system and the weight of the system was brought to 8 g with distilled water. The tubes were inverted vigorously for 40 times in the cold (4°C). The phases were separated by centrifugation at 750 rpm (150 x g) in a Sorvall HB 4 rotor for 5 min. The upper phases were carefully withdrawn with a pasteur pipette, divided in half and transferred into 40 ml plastic centrifuge tubes and diluted with cold 1 mM NaHCO3. The purified plasma membranes were collected by centrifugation at 10,000 x g in a HB rotor for 30 min. Plasma membrane pellets were resuspended in 50 mM Tris-Mes buffer (pH 7.2) and stored at -70°C. Proteins were determined using the bicinchoninic acid (BCA) assay (Smith et al. (1985) Anal. Biochem. […]: 76-85) with bovine serum albumin as standard.\n(§1) Spectrophometric assay of NADH oxidase. NADH oxidase activity was determined as the disappearance of NADH measured at 340 nm in a reaction mixture containing 25 mM Tris-MES buffer (pH 7.2), 1 mM KCN to inhibit the low levels of contaminating mitochondrial oxidase activity, and 150 µM NADH at 37°C with constant stirring. Activity was measured using a Hitachi U3210 spectrophotometer with continuous recording over two intervals of 5 min each. A millimolar extinction coefficient of 6.22 was used to determine specific activity."}, "[2]": {"molecular_target": "T1, NADH oxidase from HeLa cell plasma membranes (Homo sapiens, UniProt Q16206)", "T1 sequence (Q16206 1-610)": "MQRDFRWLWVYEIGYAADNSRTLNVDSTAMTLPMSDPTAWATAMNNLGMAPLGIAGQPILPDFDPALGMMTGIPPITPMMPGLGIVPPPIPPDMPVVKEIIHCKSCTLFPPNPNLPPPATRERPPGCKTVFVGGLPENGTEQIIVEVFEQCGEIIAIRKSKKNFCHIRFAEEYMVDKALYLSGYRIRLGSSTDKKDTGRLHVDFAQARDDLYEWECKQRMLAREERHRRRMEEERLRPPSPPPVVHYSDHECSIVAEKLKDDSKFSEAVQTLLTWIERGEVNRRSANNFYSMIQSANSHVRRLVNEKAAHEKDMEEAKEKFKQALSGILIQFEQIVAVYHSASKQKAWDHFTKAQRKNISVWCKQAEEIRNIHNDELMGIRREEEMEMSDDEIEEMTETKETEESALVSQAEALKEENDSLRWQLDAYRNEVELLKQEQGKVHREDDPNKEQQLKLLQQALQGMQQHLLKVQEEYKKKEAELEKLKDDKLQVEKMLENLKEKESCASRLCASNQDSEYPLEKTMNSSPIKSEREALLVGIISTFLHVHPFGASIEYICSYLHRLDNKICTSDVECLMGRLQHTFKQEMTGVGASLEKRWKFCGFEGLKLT", "test": "Spectrophotometric NADH oxidase assay, HeLa plasma membranes", "format": "biochemical", "experimental": "Purification of plasma membranes from HeLa cells. HeLa cells were grown as suspension cultures in minimum essential medium (MEM) supplemented with horse serum, diferric transferrin and heparin. Cells were collected by centrifugation for 6 to 15 min at 1,000 to 3,000 rpm. The cell pellets were resuspended in 0.2 mM EDTA in 1 mM NaHCO3 in an approximate ratio of 1 ml per 10^8 cells and incubated on ice for 10 to 30 min to swell the cells. Homogenization was with a Polytron Homogenizer for 30 to 40 sec at 10,500 rpm using a PT-PA 3012/23 or ST-probe in 7 to 8 ml aliquots. To estimate breakage, the cells are monitored by light microscopy before and after homogenization. […]\nThe homogenates were centrifuged for 10 min at 1,000 rpm (175 g) to remove unbroken cells and nuclei and the supernatant was centrifuged a second time at 1.4 x 10^6 g min (e.g. 1 h at 23,500 g) to prepare a plasma membrane enriched microsome fraction. […] The purity of the plasma membrane was determined to be > 90% by electron microscope morphometry. […]\nSpectrophometric assay of NADH oxidase. NADH oxidase activity was determined as the disappearance of NADH measured at 340 nm in a reaction mixture containing 25 mM Tris-MES buffer (pH 7.2), 1 mM KCN to inhibit the low levels of contaminating mitochondrial oxidase activity, and 150 µM NADH at 37°C with constant stirring. […]"}, "[3]": {"tested_on": "circulating NADH oxidase in the serum", "test": "NADH oxidase activity of human serum", "format": "biochemical", "experimental": "as §1"}, "HeLa cells": {"tested_on": "HeLa cells", "test": "Growth of HeLa cells in culture", "format": "cell-based, human", "details": "Homo sapiens, HeLa, 72 h", "experimental": "Growth of cells. HeLa cells (ATCC CCL2), were grown in 150 cm^2 flasks in Minimal Essential Medium (Gibco), pH 7.4. at 37°C with 10% bovine calf serum (heat-inactivated), plus 50 mg/l gentamycin sulfate (Sigma). Cells were trypsinized with Sigma IX trypsin for 1 to 2 min, harvested by scraping and taken up in TD-tris buffer (140 mM NaCl, 5 mM KCl, 0.7 mM Na2HPO4 and 25 mM Tris, pH 7.4) to a final cell concentration of 0.1 g wet weight (gww) per ml.\nThe number of cells initially plated was subtracted. The results were averages from duplicate experiments."}, "normal rat kidney cells": {"tested_on": "normal rat kidney cells", "test": "Growth of normal rat kidney cells", "format": "cell-based"}, "[4]": {"tested_on": "NADH oxidase activity of isolated plasma membranes of normal rat kidney cells", "test": "NADH oxidase assay, plasma membranes of normal rat kidney cells"}}, "note": "Where two headings read alike, the source gives them in different places.", "data": [{"smiles": "COc1cc(CNC(=O)CCCC/C=C/C(C)C)ccc1O", "note": "[capsaicin]", "values": [{"measurement": "effect on NADH oxidase activity (in words)", "setting": "[1]", "result": "no effect"}, {"measurement": "inhibition of NADH oxidase activity (in words)", "setting": "[2]", "result": "nearly completely inhibited"}, {"measurement": "NADH oxidase activities of human serum, Mean", "setting": "[3]", "result": 0.56}, {"measurement": "Ratio, Mean", "setting": "[3]", "result": 0.97}, {"measurement": "IC50", "setting": "HeLa cells; read-out: concentration at which growth was 50% inhibited", "result": "~1000", "unit": "nM"}, {"measurement": "IC50", "setting": "HeLa cells; read-out: concentration of drug able to inhibit growth by 50%", "result": "> 10000", "unit": "nM"}, {"measurement": "concentration at which growth is inhibited", "setting": "normal rat kidney cells", "result": "> 10^-5 M"}, {"measurement": "concentration at which NADH oxidase activity is inhibited", "setting": "[4]", "result": "> 10^-5 M"}]}]}
